Four molecules from publication PMC9904262, “Omics analysis of Mycobacterium tuberculosis isolates uncovers Rv3094c, an ethionamide metabolism-associated gene” (Communications Biology, 2023) can be followed below.

In data set [1] the target is T1, Rv3094c (Mycobacterium tuberculosis, UniProt O05773).
Data set [2] has as its target T1, Rv3094c. This is another data set of the same source.
A further data set addresses T2, EthA (Mycobacterium tuberculosis, UniProt P9WNF9).
T2 construct: N-terminal 6xHis tag kept (pET28a), expressed in intact E. coli BL21(DE3); not purified
It is filed as cell-based. To be noted: ethionamide 80 µg/ml (Methods), 37 °C, up to 6 h.

Data set [3] concerns the molecule itself. Briefly: crystal structure; crystals of apo-Rv3094c, Rv3094c-FMN and Rv3094c-FMN-ETH; 0.2 M sodium nitrate, 0.1 M Bis Tris propane pH 8.5, 20% PEG3350, 16 °C; multimeric state analysed with PDBePISA.

Broadly, the stoichiometry N is a count of units in the complex or per binding partner.

T1 sequence (O05773 entry or part of it): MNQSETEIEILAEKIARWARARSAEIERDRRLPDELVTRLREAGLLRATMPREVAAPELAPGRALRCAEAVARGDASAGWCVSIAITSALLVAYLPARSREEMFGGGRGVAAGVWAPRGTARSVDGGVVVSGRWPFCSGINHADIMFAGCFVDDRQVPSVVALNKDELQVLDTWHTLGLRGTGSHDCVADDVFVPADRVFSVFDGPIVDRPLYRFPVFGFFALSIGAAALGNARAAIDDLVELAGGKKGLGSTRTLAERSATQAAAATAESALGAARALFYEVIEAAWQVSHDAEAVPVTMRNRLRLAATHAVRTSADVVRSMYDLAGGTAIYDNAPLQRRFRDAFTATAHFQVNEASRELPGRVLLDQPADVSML
T2 sequence (P9WNF9 whole entry): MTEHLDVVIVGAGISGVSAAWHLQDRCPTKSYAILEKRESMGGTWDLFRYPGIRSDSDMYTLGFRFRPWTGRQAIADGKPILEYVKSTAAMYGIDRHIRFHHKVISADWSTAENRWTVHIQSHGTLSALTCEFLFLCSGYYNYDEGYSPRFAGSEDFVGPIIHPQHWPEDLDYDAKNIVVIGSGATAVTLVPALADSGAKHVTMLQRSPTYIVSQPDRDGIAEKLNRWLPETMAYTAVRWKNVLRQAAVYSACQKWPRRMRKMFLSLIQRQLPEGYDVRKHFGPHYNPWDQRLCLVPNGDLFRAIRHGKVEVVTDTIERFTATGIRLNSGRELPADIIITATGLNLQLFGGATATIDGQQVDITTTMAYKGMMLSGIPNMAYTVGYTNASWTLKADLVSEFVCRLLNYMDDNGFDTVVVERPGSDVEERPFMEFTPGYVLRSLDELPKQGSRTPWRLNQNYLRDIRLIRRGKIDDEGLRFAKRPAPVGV

For `Cc1cc2nc3c(=O)[nH]c(=O)nc-3n(C[C@H](O)[C@H](O)[C@H](O)COP(=O)(O)O)c2cc1C` [flavin mononucleotide], the X-ray crystallography entry at Rv3094c [1] was “Rv3094c in complex with FMN (Rv3094c-FMN; Supplementary Fig. 4b)”.
As to `CCc1cc(C(N)=S)ccn1` [ethionamide], the “HPLC-UV of E. coli culture supernatant, LC-MS/MS” value at Rv3094c [2] was “Rv3094c must be a monooxygenase that can directly sulfoxidise ethionamide, forming ETH-SO”; at EthA, “in supernatants from Rv3094c and ethA overexpression strains declined over time”. In addition, the X-ray crystallography entry at Rv3094c [1] is “in complex with FMN (Rv3094c-FMN; Supplementary Fig. 4b) and ethionamide (Rv3094c-FMN-ETH”.
`CCc1cc(C(N)=S=O)ccn1` [ETH-SO]: the “HPLC-UV of E. coli culture supernatant, LC-MS/MS” value on Rv3094c [2] was “We synthesized an ETH-SO standard, and confirmed the new peak to be ETH-SO”; at EthA, “We synthesized an ETH-SO standard, and confirmed the new peak to be ETH-SO”.

B1: Rv3094c (enzyme)
chain: NQSETEIEILAEKIARWARARSAEIERDRRLPDELVTRLREAGLLRATMPREVAAPELAPGRALRCAEAVARGDASAGWCVSIAITSALLVAYLPARSREEMFGGGRGVAAGVWAPRGTARSVDGGVVVSGRWPFCSGINHADIMFAGCFVDDRQVPSVVALNKDELQVLDTWHTLGLRGTGSHDCVADDVFVPADRVFSVFDGPIVDRPLYRFPVFGFFALSIGAAALGNARAAIDDLVELAGGKKGLGSTRTLAERSATQAAAATAESALGAARALFYEVIEAAWQVSHDAEAVPVTMRNRLRLAATHAVRTSADVVRSMYDLAGGTAIYDNAPLQRRFRDAFTATAHFQVNEASRELPGRVLLDQPADVSML
notes: also called apo-Rv3094c; Rv3094c-FMN
For the molecule B1, the “stoichiometry N” value in data set [3] was 4.
